# Data reported in US8952177B2 (Janssen Pharmaceutica NV, priority 2013, dated 2015).
# Where a name gives a salt, the structure may show the parent alone.
# Assays:
# human FLAP = human FLAP (Homo sapiens (Human), UniProt P20292); assay: FLAP binding assay (HTRF format); conditions: human FLAP-containing Sf-9 membranes, 25 nM HTRF ligand, 2 h; average of runs; read-out: FLAP Binding wild type HTRF Ki
# Procedure, shortened: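 His6-tagged human FLAP in Sf-9 membranes competed against a FITC-labelled indole FLAP modulator in HTRF format; 2 h reaction, read as HTRF ratio. Ki and IC50 from averaged duplicate ratios over 2–20 runs of two plates each; parenthetical numbers give run count.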
# [1] = test system: leukotriene pathway in human whole blood (LTB4); assay: Human whole blood assay (LTB4 after calcium ionophore A23187 stimulation); type: cell-based; conditions: human whole blood diluted 1:1 in RPMI, 15 min pre-incubation, A23187 7 μg/mL for 30 min at 37° Celsius
# Procedure, shortened: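 Heparinised human whole blood, diluted 1:1 in RPMI, was preincubated with compound for 15 min at 37° C. before stimulation with A23187 (7 μg/mL) for 30 min. Plasma LTB4 was measured by immunoassay kit and IC50 obtained by 4-parameter fit; single replicate per plate, blood from at least one donor.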
# Sequence of human FLAP (P20292 whole entry): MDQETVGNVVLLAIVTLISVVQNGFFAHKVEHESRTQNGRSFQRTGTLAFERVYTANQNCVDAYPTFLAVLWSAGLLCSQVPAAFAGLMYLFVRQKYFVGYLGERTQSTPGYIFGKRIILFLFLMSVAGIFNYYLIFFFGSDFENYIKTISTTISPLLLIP
Ki (human FLAP) [nM],IC50 ([1]; Homo sapiens) [nM],SMILES,IC50 [1] [nM]
12,1220,"Cn1ccc(COc2cc(F)c3nc([C@@H]4CCCC[C@@H]4C(=O)O)n(Cc4ccc(N5CCCCC5)cc4)c3c2)n1 (racemic) [Example 169, racemic cis-2-{4-Fluoro-6-[(1-methyl-1H-pyrazol-3-yl)methoxy]-1-(4-piperidin-1-ylbenzyl)-1H-benzimidazol-2-yl}cyclohexanecarboxylic acid as the HCl salt]",–
24,3930,"Cc1cnc(COc2ccc3nc(CC(C)(C)C(=O)O)n(Cc4ccc(OC(F)(F)F)cc4F)c3c2)c(F)c1 [Example 131, 3-{6-[(3-Fluoro-5-methylpyridin-2-yl)methoxy]-1-[2-fluoro-4-(trifluoromethoxy)benzyl]-1H-benzimidazol-2-yl}-2,2-dimethylpropanoic acid]",–
5.4,1160,"Cc1cc(Cn2c([C@@H]3CCCC[C@@H]3C(=O)O)nc3ccc(OCc4ccn(C)n4)cc32)ccc1OC(F)(F)F (racemic) [Example 106, racemic cis-2-{6-[(1-Methyl-1H-pyrazol-3-yl)methoxy]-1-[3-methyl-4-(trifluoromethoxy)benzyl]-1H-benzimidazol-2-yl}cyclohexanecarboxylic acid as the HCl salt]",–
15,1780,"Cn1cc(Cl)c(COc2ccc3nc([C@@H]4CCCC[C@@H]4C(=O)O)n(Cc4ccc(N5CCC(F)CC5)cc4)c3c2)n1 (racemic) [Example 87, racemic cis-2-{6-[(4-Chloro-1-methyl-1H-pyrazol-3-yl)methoxy]-1-[4-(4-fluoropiperidin-1-yl)benzyl]-1H-benzimidazol-2-yl}cyclohexanecarboxylic acid]",–
26,680,"Cc1ccc(COc2ccc3nc(C4CCCC[C@H]4C(=O)O)n(Cc4ccc(C#N)cc4)c3c2)nc1 (mixture of isomers) [Example 37, racemic cis-2-{1-(4-Cyanobenzyl)-6-[(5-methylpyridin-2-yl)methoxy]-1H-benzimidazol-2-yl}cyclohexanecarboxylic acid as the TFA salt]",–
24,14000,"Cc1ccc(COc2cc(Cl)c3nc(CC4(C(=O)O)CCCC4)n(Cc4ccc(Br)cc4)c3c2)nc1 [Example 78, 1-({1-(4-Bromobenzyl)-4-chloro-6-[(5-methylpyridin-2-yl)methoxy]-1H-benzimidazol-2-yl}methyl)cyclopentanecarboxylic acid]",–
11,480,"CCC(CC)(Cc1nc2ccc(OCc3ncc(C)cc3F)cc2n1Cc1ccc(N2CCC(F)CC2)cc1)C(=O)O [Example 182, 2-Ethyl-2-({6-[(3-fluoro-5-methylpyridin-2-yl)methoxy]-1-[4-(4-fluoropiperidin-1-yl)benzyl]-1H-benzimidazol-2-yl}methyl)butanoic acid]",–

SMILES,Ki (human FLAP) [nM],IC50 ([1]; Homo sapiens) [nM],IC50 [1] [nM]
"Cn1ccc(COc2cc(F)c3nc(C4CCCC[C@@H]4C(=O)O)n(Cc4ccc(N5CC(F)(F)C5)cc4)c3c2)n1 (mixture of isomers) [Example 168, racemic cis-2-{1-[4-(3,3-Difluoroazetidin-1-yl)benzyl]-4-fluoro-6-[(1-methyl-1H-pyrazol-3-yl)methoxy]-1H-benzimidazol-2-yl}cyclohexanecarboxylic acid as the formate salt]",7.8,–,3570
CCC(CC)(Cc1nc2ccc(OCc3ccc(C)cn3)cc2n1Cc1ccc(OC(F)(F)F)cc1C)C(=O)O [Example 105],40,6250,–
"CCC(CC)(Cc1nc2c(F)cc(OCc3ccc(C)cn3)cc2n1Cc1ccc(C)cc1)C(=O)O [Example 71, 2-Ethyl-2-({4-fluoro-1-(4-methylbenzyl)-6-[(5-methylpyridin-2-yl)methoxy]-1H-benzimidazol-2-yl}methyl)butanoic acid as the TFA salt]",49,3350,–
